Laboratory results published in patent publication US8372967B2, “Compounds and methods for modulating expression of GCCR” (Isis Pharmaceuticals, Inc., priority 2006, dated 2013).
Strand notation (5' to 3'): a small letter for the sugar, then the base; units joined by * are phosphorothioate-linked, units joined directly phosphodiester-linked; [ ] holds rarer units or linkages, { } end groups; capitals alone tell only the bases. e = 2'-O-(2-methoxyethyl) (MOE); [5mC] = 5-methylcytosine; d = 2'-deoxy (DNA)

Key:
Assay type in all cases: in vivo
[1] = system: rat SGLT2 mRNA; experiment: Rat SGLT2 mRNA in kidney, 1-10-1 and 1-10-2 MOE gapmers, Sprague-Dawley rats (Table 63)
Description: 1-10-1 and 1-10-2 MOE gapmer antisense compounds, provided in Table 62, were designed to target different regions of the mouse or rat SGLT2 RNA. All short antisense compounds in Table 62 are chimeric oligonucleotides (“gapmers”) either 12 or 13 nucleotides in length, composed of a central “gap” segment consisting of ten 2′-deoxynucleotides, which are flanked on the 5′ side by a one-nucleoside “wing” and on the 3′ side by a two or one-nucleotide “wing”. […] All cytidine residues are 5-methylcytidines.
The short antisense compounds were analyzed for their effect on rat SGLT2 mRNA levels. Data are ranges taken from three experiments in which Male Sprague-Dawley rats (170-200 g) were dosed twice per week for three weeks with 450, 150 or 50 nmol/kg of either a 1-10-1 or 1-10-2 MOE gapmer given by intraperitoneal injection. Rats were sacrificed 48 hours following last administration and evaluated for SGLT2 mRNA levels in kidney. Target levels were determined by RT, real-time PCR as described by other examples herein. PCR results were normalized to an internal ISIS control.

[2] = system: mouse SGLT2 mRNA; experiment: Mouse SGLT2 mRNA in kidney, 1-10-1 MOE gapmers, Balb/c mice (Table 65)
Protocol: The short antisense compounds were analyzed for their effect on mouse SGLT2 mRNA levels. Data was taken from three experiments in which Male 6-week old Balb/c mice were dosed twice per week for two weeks with 450, 150, or 50 nmol/kg of one of the above 1-10-1 MOE gapmers given by intraperitoneal injection. Mice were sacrificed 48 hours following last administration and evaluated for SGLT2 mRNA levels in kidney. Target levels were determined by RT, real-time PCR as described by other examples herein. PCR results were normalized to an internal ISIS control.

[3] = system: rat SGLT2 mRNA; experiment: Rat SGLT2 mRNA in kidney, 1-10-1 gapmers, 250 nmol/kg (Table 66); settings: 250 nmol/kg i.p. twice per week for three weeks, Sprague-Dawley rat kidney
Protocol: The effect of the above 1-10-1 gapmers (see Table 64 above) on rat SGLT2 mRNA levels. Data are taken from four experiments in which male Sprague-Dawley rats (170-200 g) were dosed twice per week for three weeks with 250 nmol/kg given by intraperitoneal injection. Rats were sacrificed 48 hours following last administration and evaluated for SGLT2 mRNA levels in kidney. Target levels were determined by RT, real-time PCR as described by other examples herein. PCR results were normalized to an internal ISIS control.

[4] = system: mouse SGLT2 mRNA; experiment: Mouse SGLT2 mRNA in kidney, additional 1-10-1 and 2-8-2 MOE gapmers (Table 68); settings: Balb/c mouse kidney
Protocol: 1-10-1 and 2-8-2 MOE gapmer short antisense compounds were designed to target different regions of the mouse SGLT2 RNA but have complementarity across species. […] All cytidine residues are 5-methylcytidines.
The short antisense compounds were analyzed for their effect on mouse SGLT2 mRNA levels in vivo. Data was taken from three experiments in which male 6-week old Balb/c mice were dosed twice per week for three weeks with 0.5, 0.1, or 0.02 umol/kg of either a 1-10-1 or 2-8-2 MOE gapmer given by intraperitoneal injection. Mice were sacrificed 48 hours following last administration and evaluated for SGLT2 levels in kidney. Target levels were determined by RT, real-time PCR as described by other examples herein. PCR results were normalized to an internal ISIS control.

[5] = system: mouse SGLT2 mRNA; experiment: Mouse SGLT2 mRNA in kidney, MOE versus Methyleneoxy BNA gapmers (Table 69); settings: Balb/c mouse kidney
Protocol: The effect of ISIS 3796921-10-1 MOE gapmer and ISIS 3886252-8-2 MOE gapmer are compared with the effect of ISIS 3921701-10-1 Methyleneoxy BNA Gapmer and ISIS 3921732-8-2 Methyleneoxy BNA Gapmer (see Table 69) on mouse SGLT2 mRNA levels in vivo. Data are taken from three experiments in which male 6-week old Balb/c mice were dosed twice per week for three weeks with 5, 25 and 125 nmol/kg of either the ISIS 3796921-10-1 MOE gapmer or the ISIS 3886252-8-2 MOE gapmer given by intraperitoneal injection. Mice were sacrificed 48 hours following last administration and evaluated for SGLT2 mRNA levels in kidney. Target levels were determined by RT, real-time PCR as described by other examples herein. PCR results were normalized to an internal ISIS control. The data are expressed as percent change (“+” indicates an increase, “−” indicates a decrease) relative to saline treated animals and are illustrated in Table 69.

[6] = system: rat SGLT2 mRNA; experiment: Rat SGLT2 mRNA in kidney, 1-10-1 and 2-8-2 MOE gapmer (Table 70); settings: Sprague-Dawley rat kidney
Protocol: The effect of ISIS 3796921-10-1 MOE gapmer and ISIS 388625 MOE 2-8-2 gapmer (see Table 70) on rat SGLT2 mRNA levels in vivo. […] Rats were sacrificed 48 hours following last administration and evaluated for SGLT2 levels in kidney. Target levels were determined by RT, real-time PCR as described by other examples herein. PCR results were normalized to an internal ISIS control.

[7] = Plasma glucose in ZDF rat (Table 71); settings: ZDF rats, 400 nM/kg i.p. once a week for twelve weeks; compared to PBS and control
Protocol: (§1) ISIS 388625, 388626 and control oligo ISIS 388628 were analyzed for their effect on ZDF rat plasma glucose levels and HbA1c. The leptin receptor deficient Zucker diabetic fatty (ZDF) rat is a useful model for the investigation of type 2 diabetes. Diabetes develops spontaneously in these male rats at ages 8-10 weeks, and is associated with hyperphagia, polyuria, polydipsia, and impaired weight gain, symptoms which parallel the clinical symptoms of diabetes (Phillips M S, et al., 1996, Nat Genet. 13, 18-19). Six week old ZDF rats were injected intraperitoneally with short antisense compound at a dose of 400 nM/kg once a week for twelve weeks. Data are illustrated in Tables 71 and 72.

[8] = HbA1c status in ZDF rat (Table 72); settings: ZDF rats, 400 nM/kg i.p. once a week for twelve weeks; compared to PBS and control
Protocol: as §1

[9] = 50 nmol/kg i.p. twice per week for three weeks
[10] = 150 nmol/kg i.p. twice per week for three weeks
[11] = 450 nmol/kg i.p. twice per week for three weeks
[12] = 50 nmol/kg i.p. twice per week for two weeks
[13] = 150 nmol/kg i.p. twice per week for two weeks
[14] = 450 nmol/kg i.p. twice per week for two weeks
[15] = 0.02 umol/kg i.p. twice per week for three weeks
[16] = 0.1 umol/kg i.p. twice per week for three weeks
[17] = 0.5 umol/kg i.p. twice per week for three weeks

| Substance | % change in SGLT2 expression relative to saline [1, 9] [%] | % change in SGLT2 expression relative to saline [1, 10] [%] | % change in SGLT2 expression relative to saline [1, 11] [%] | % change in SGLT2 expression relative to saline [2, 12] [%] | % change in SGLT2 expression relative to saline [2, 13] [%] | % change in SGLT2 expression relative to saline [2, 14] [%] | % change in SGLT2 expression relative to saline [3] [%] | % change in SGLT2 expression relative to saline [4, 15] [%] | % change in SGLT2 expression relative to saline [4, 16] [%] | % change in SGLT2 expression relative to saline [4, 17] [%] | SGLT2 mRNA, percent change relative to saline treated animals ([5]; 5 nmol/kg i.p. twice per week for three weeks) [%] | SGLT2 mRNA, percent change relative to saline treated animals ([5]; 25 nmol/kg i.p. twice per week for three weeks) [%] | SGLT2 mRNA, percent change relative to saline treated animals ([5]; 125 nmol/kg i.p. twice per week for three weeks) [%] | % change in SGLT2 expression relative to saline ([6]; dose 3.125 umol/kg [sic] i.p. twice per week for three weeks) | % change in SGLT2 expression relative to saline ([6]; dose 12.5 umol/kg [sic] i.p. twice per week for three weeks) [%] | % change in SGLT2 expression relative to saline ([6]; dose 50 umol/kg [sic] i.p. twice per week for three weeks) [%] | % change in SGLT2 expression relative to saline ([6]; dose 200 umol/kg [sic] i.p. twice per week for three weeks) [%] | Plasma glucose levels [7] | HbA1C [8] |
| --- | --- | --- | --- | --- | --- | --- | --- | --- | --- | --- | --- | --- | --- | --- | --- | --- | --- | --- | --- |
| ISIS 379692: 1-10-1 MOE gapmer, SGLT2 (eT*dG*dT*dT*d[5mC]*d[5mC]*dA*dG*d[5mC]*d[5mC]*d[5mC]*eA) | −80 | −85 | −90 | −52.5 | −70 | −80 | −85 | −55 | −75 | −85 | −7 | −46 | −58 | +30% | −15 | −65 | −80 | – | – |
| ISIS 379699: GGCATGAGCTTC 1-10-1 MOE, SGLT2 (eG*dG*d[5mC]*dA*dT*dG*dA*dG*d[5mC]*dT*dT*e[5mC]) | −60 | −75 | −83 | −42.5 | −62.5 | −80 | −75 | −30 | −60 | −75 | – | – | – | – | – | – | – | – | – |
| ISIS 379702 (eG*d[5mC]*dA*d[5mC]*dA*d[5mC]*dA*dG*d[5mC]*dT*dG*e[5mC]) | – | – | – | −52.5 | −72.5 | −75 | −25 | −40 | −65 | −70 | – | – | – | – | – | – | – | – | – |
| ISIS 388626: GGCATGAGCTTC 2-8-2 MOE, SGLT2 (eG*eG*d[5mC]*dA*dT*dG*dA*dG*d[5mC]*dT*eT*e[5mC]) | – | – | – | – | – | – | – | −45 | −60 | −80 | – | – | – | – | – | – | – | significantly reduced | significantly reduced |
